Measured values: patent EP1438962A1, “DRUGS COMPRISING COMBINATION OF TRIAZASPIRO 5,5 U NDECANE DERIVATIVE WITH CYTOCHROME P450 ISOZYME 3A4 INHIBITOR AND/OR P−GLYCOPROTEIN INHIBITOR” (ONO PHARMACEUTICAL CO., LTD., priority 2001, dated 2003)
Like-named read-outs stand apart in the source and are kept apart here.

Experiments:
CYP 3A4 = assay: Metabolic reaction in pooled human liver microsome with or without the CYP 3A4 inhibitor ketoconazole; assay type: in vitro ADME; conditions: 1 µmol/L test compound, 37°C, after 60 minutes; for Residual rate (%) Ketoconazole (+): ketoconazole 1 µmol/L; for Residual rate (%) Ketoconazole (-): without ketoconazole
Text: Metabolic reaction of a test compound in pooled human liver microsome (Zenotec) in the presence of a specific inhibitor for each CYP molecular species was investigated and the CYP molecular species participating in the metabolism was estimated from the effect of each inhibitor.
The following inhibitors were used as the specific inhibitors for CYP molecular species:
A mixed solution containing 100 mmol/L of a phosphate buffer (pH 7.4), 0.05 mmol/L disodium ethylenediaminetetraacetate, 5 mmol /L magnesium chloride, 1 µmol/L of a test compound, 0.2 mg/L of human liver microsome (8 mg/L only for the measurement of a metabolism inhibiting rate by CYP 2C19) and each inhibitor (each of the numerals being the final concentration) was pre-incubated at 37°C, and then 2 mmol/L NADPH was added thereto to start the reaction. Immediately thereafter and after 60 minutes, 100 µL. of the sample was collected. The collected sample was immediately added to 2 mL of diethyl ether containing 400 µL of distilled water and 0.1 µg/L of an internal standard substance, followed by stirring, and the reaction was stopped. After a centrifugal treatment (2,000 rpm for 3 minutes), diethyl ether which was an upper layer was collected and dried in vacuo. The residue was dissolved in 150 µL of 0.01% TFA-80% acetonitrile and 40 µL thereof was subjected to a measurement. In this test, no quantitative determination was conducted but the residual rate to the concentration of the compound immediately after starting the reaction was determined from the area ratio in liquid chromatography/tandem mass analysis (LC/MS/MS) chromatogram.

[1] = Plasma concentration after intravenous administration in rat in the presence of CYP 3A4 inhibitor; assay type: in vivo; conditions: male SD rats, test compound 3 mg/kg intravenously; for AUC increase in the presence of ketoconazole versus absence: ketoconazole 50 mg/kg intraperitoneally; for AUC at 4 h: rat, in vivo, iv, 3 mg/kg
Method: Ketoconazole (50 mg/kg), an inhibitor against CYP 3A4, was intraperitoneally administered to male SD rats. One hour thereafter, the test compound (3 mg/kg) was intravenously administered. After 2, 5, 15, 30, 60, 120 and 240 minutes from the administration of the test compound, blood was collected from the rat jugular vein and centrifuged at 3,000 rpm for 10 minutes to obtain plasma. To 150 µL of the resulting plasma were added 5 ng of 2-[4-[4-(2-methoxyphenyl)-1-piperazinyl]butylamino]-5-ethoxycarbonyl-4,6-dimethylpyrimidine trihydrochloride as an internal standard, proteins were removed therefrom using ethanol and a plasma concentration of the test compound was measured by high-performance liquid chromatography. From the resulting plasma concentration of the test compound, the area under the curve of plasma concentration vs. time (AUC, µg·min/mL) was calculated.

[2] = tested on: Human MDR1 expressed cells (LLC-GA-5-COL 150); assay: Membrane permeability of P-gp expression cells; assay type: in vitro ADME; conditions: COL 150 cells, CsA (-), compound 10 µM
Method: (§1) Human MDR1 expressed cells (LLC-GA-5-COL 150) and parent cells thereof (LLC-PK 1) were incubated until arriving confluent in a 12-well transwell plate to prepare a single-layer membrane. Compound 75(54) was adjusted to 10 µM using a buffer for the measurement (M 199, 26.2 mM NaHCO3, 10% FBS, 0.03% L-glutamine; pH 7.4). In measuring the membrane permeability from lumen to blood vessel, the drug solution was loaded to the lumen while, in measuring the membrane permeability from blood vessel to lumen, it was loaded to the blood vessel and incubation was carried out under conditions at 37°C, 5% CO2 and relative humidity of 90%. After a certain period, the sample solution was collected and, in order to keep each volume, a buffer for the measurement was supplemented to an extent of the collected volume. Similarly, membrane permeability of Compound 75(54) was observed as well in the presence of cyclosporine A (abbreviated as CsA; final concentration: 10 µM) which is an inhibitor for P-gp. The measurement was carried out 3 times. All samples were evaluated by means of LS/MS/MS.

[3] = tested on: parent cells thereof (LLC-PK 1); assay: Membrane permeability of parent cells; assay type: in vitro ADME; conditions: PK 1 cells, CsA (-), compound 10 µM
Method: as §1

Caco-2 cells = assay: Permeability of Caco-2 in the presence of P-gp inhibitor; assay type: in vitro ADME; conditions: drug 10 µM
Method: Caco-2 cells were incubated in a 12-well transwell place on a collagen-coated porous polycarbonate membrane until arriving confluent to prepare a single-layer membrane of Caco-2 cells. The single-layer membrane was preincubated for 30 minutes in a buffer for the measurement (a Hanks buffer containing 10 mM HEPES and 15 mM glucose; pH 7.0 ± 0.2) to which d-α-tocopheryl polyethylene glycol 1000 succinate, a P-gp inhibitor, was added. The drug concentration was adjusted to 10 µM by a buffer for the measurement. In measuring the membrane permeability from lumen to blood vessel, the drug solution was loaded to the lumen while, in measuring the membrane permeability from blood vessel to lumen, it was loaded to the blood vessel and incubation was carried out under conditions at 37°C, 5% CO2 and relative humidity of 90%. After 1 and 2 hours from the administration of the drug, 200 µL of the buffer for the measurement containing the drug solution were recovered and substituted with a new buffer for the measurement. The measurement was carried out 2 times. Membrane permeability in a cell-free state was measured and used as a blank. As a control, permeability of Lucifer Yellow was measured. All samples were evaluated by LC/MS. A permeation coefficient (Papp) was calculated according to the following equation. Papp = (dc / dt) • Vr / (A • C0 ) [formula]
In the equation, dc/dt is a permeation rate after lag time; Vr is a volume of the solution at the side of a donor; A is a surface area; and C0 is the initial concentration of the solution at the side of the donor.

[4] = Plasma concentration upon oral administration to rats in the presence of CYP 3A4 inhibitor; assay type: in vivo; conditions: male SD rats, test compound 30 mg/kg orally, ketoconazole 50 mg/kg intraperitoneally one hour before
Method: Ketoconazole (50 mg/kg), a CYP 3A4 inhibitor, was intraperitoneally administered to male SD rats. One hour thereafter, 30 mg/kg of the test compound was orally administered. After 15, 30, 60, 120, 240 and 360 minutes from administration of the test compound, blood was collected from the rat jugular vein and centrifuged at 3,000 rpm for 10 minutes to give plasma. To 150 µL of the resulting plasma were added 5 ng of 2-[4-[4-(2-methoxyphenyl)-1-piperazinyl]butyl-amino]-5-ethoxycarbonyl-4,6-dimethylpyrimidine trihydrochloride, proteins were removed therefrom using ethanol and plasma concentration of the test compound was measured by high-performance liquid chromatography. From the concentration of the test compound in the resulting plasma, the area under curve of plasma concentration vs. time (AUC, µg•min/mL) was calculated.

[5] = Plasma concentration upon oral administration to rats in the presence of an HIV protease inhibitor; assay type: in vivo; conditions: male SD rats
Method: Amprenavir, nelfinavir, ritonavir or saquinavir (10 mg/kg) which is an HIV protease inhibitor and 10 mg/kg of the test compound were orally administered to male SD rats at the same time. After 15, 30, 60, 120, 240 and 360 minutes from the administration of the test compound, blood was collected from the rat jugular vein and centrifuged at 3,000 rpm for 10 minutes to give plasma. To 200 µL of the resulting plasma were added 50 ng of (3S)-1-butyl-2,5-dioxo-3-(2-methylpropyl)-9-)4-phenyloxyphenylmethyl)-1,4,9-triazaspiro[5.5]undecane as an internal standard. To this were added 300 µL of distilled water and 2,000 µL of diethyl ether, followed by well stirring, and the diethyl ether layer recovered therefrom was dried in vacuo. The dried substance was dissolved in 150 µL of a 50% acetonitrile solution containing 0.005% trifluoroacetic acid and subjected to a liquid chromatography/tandem mass analysis (LC/MS/MS) method to measure a plasma concentration of the test compound. From the concentration of the test compound in the resulting plasma, the area under curve of plasma concentration vs. time (AUC, µg·min/mL) was calculated.

## CCCCN1C(=O)[C@H](CC2CCCCC2)NC(=O)C12CCN(Cc1ccc(Oc3ccc(C(=O)O)cc3)cc1)CC2 [Compound 40(70), (3S)-1-butyl-2,5-dioxo-3-cyclohexylmethyl-9-(4-(4-carboxyphenyloxy)phenylmethyl)-1,4,9-triazaspiro[5.5]undecane]
CYP 3A4
  Residual rate (%) Ketoconazole (+): 104.0%
  Residual rate (%) Ketoconazole (-): 28.2%

## CCCCN1C(=O)[C@@H]([C@H](O)C2CCCCC2)NC(=O)C12CCN(Cc1c(C)nn(-c3ccc(C(=O)NC)cc3)c1C)CC2 [Compound 75(53), (3R)-1-butyl-2,5-dioxo-3-((1R)-1-hydroxy-1-cyctohexylmethyl)-9-(3,5-dimethyl-1-(4-methylaminocarbonylphenyl)pyrazol-4-ylmethyl)-1,4,9-triazaspiro[5.5]undecane]
CYP 3A4
  Residual rate (%) Ketoconazole (+): 114.4%
  Residual rate (%) Ketoconazole (-): 19.4%

## CCCCN1C(=O)C(CC(C)C)NC(=O)C12CCN(Cc1c(C)nn(-c3ccccc3)c1C)CC2 (stereo not shown) [Compound 3(1)]
CYP 3A4
  Residual rate (%) Ketoconazole (+): 89.1%
  Residual rate (%) Ketoconazole (-): 32.1%
[1]
  AUC increase in the presence of ketoconazole versus absence: about 4 times
[1]; ketoconazole 50 mg/kg intraperitoneally one hour before, read-out: AUC in the presence of ketoconazole (converted)
  AUC at 4 h: 4350 ng·h/mL
[1]; no ketoconazole, read-out: AUC in the absence of ketoconazole (converted)
  AUC at 4 h: 1020 ng·h/mL

## CCCCN1C(=O)[C@@H]([C@H](O)C2CCCCC2)NC(=O)C12CCN(Cc1ccc(Oc3ccc(C(=O)O)cc3)cc1)CC2 [Compound 75(54), (3R)-1-butyl-2,5-dioxo-3-((1R)-1-hydroxy-1-cyclohexylmethyl)-9-(4-(4-carboxyphenyloxy)phenylmethyl)-1,4,9-triazaspiro[5.5]undecane]
CYP 3A4
  Residual rate (%) Ketoconazole (+): 95.3%
  Residual rate (%) Ketoconazole (-): 34.4%
[1]
  AUC increase in the presence of ketoconazole versus absence: about 3 times
[2]
  Permeability From blood vessel to lumen: 34.3 µL/cm^2/hr
  Permeability From lumen to blood vessel: 2.06 µL/cm^2/hr
[3]
  Permeability From blood vessel to lumen: 18.8 µL/cm^2/hr
  Permeability From lumen to blood vessel: 35.3 µL/cm^2/hr
Caco-2 cells; Caco-2, 0.025% TPGS (+)
  Permeation Coefficient From blood vessel to lumen: 13 cm/s
  Permeation Coefficient From lumen to blood vessel: 10.5 cm/s
Caco-2 cells; Caco-2, 0.025% TPGS (-)
  Permeation Coefficient From blood vessel to lumen: 32.4 cm/s
  Permeation Coefficient From lumen to blood vessel: 3.42 cm/s
[4]
  AUC increase in the presence of ketoconazole versus absence: 10 times
[5]; test compound 10 mg/kg and amprenavir 10 mg/kg orally at the same time
  AUC increase in the presence of amprenavir versus absence: 3.7 times
[5]; test compound 10 mg/kg and nelfinavir 10 mg/kg orally at the same time
  AUC increase in the presence of nelfinavir versus absence: 3.4 times
[5]; test compound 10 mg/kg and ritonavir 10 mg/kg orally at the same time
  AUC increase in the presence of ritonavir versus absence: 7.7 times
[5]; test compound 10 mg/kg and saquinavir 10 mg/kg orally at the same time
  AUC increase in the presence of saquinavir versus absence: 1.7 times
